Here are results for six compounds from paper PMC10253860, “Kinetic Profile of Urine Metabolites after Acute Intake of a Phenolic Compounds-Rich Juice of Juçara (Euterpe edulis Mart.) and Antioxidant Capacity in Serum and Erythrocytes: A Human Study” (International Journal of Molecular Sciences, 2023).

Data set [1] in a line: Urinary excretion of phenolic metabolites after single 400 mL juçara juice intake (HPLC-DAD, LC-ESI-MS/MS). The class given is in vivo, human. The note with it: for AUC / Cmax: urine, mean ± SEM, n = 9–10; for AUC: 0–6 h after 400 mL juçara juice; for Cmax: 10 healthy subjects, after 400 mL juçara juice. The text has this: Study volunteers were selected according to the following inclusion criteria: no clinical conditions such as cardiovascular, endocrine, gastrointestinal, renal, or hepatic diseases; no visible or known infections or inflammatory processes within three months of the study; no use of medicines or dietary supplements, no smoking, no regular alcohol drinking. The other criteria were BMI < 30 kg/m^2 and no gastric intolerance or complications related to the juçara juice intake. […] The subjects were advised to avoid vegetable and fruit sources of anthocyanins or their derivatives, such as açai, blackberries, blueberries, cherries, red and purple grapes, strawberries, and green and black tea, two days before the study. […] The subjects were also instructed not to practice intense physical activity and not to deprive themselves of sleeping before the outset of the study protocol. […] Subsequently, the participants drank 400 mL of the juçara juice within 5 min. Blood (30, 60, 120, and 360 min) and urine (0–3, 3–6 h) were collected again. The volunteers continued fasting during the 6 h of the sample collection time. The study protocol was based on evidence that anthocyanins appear to be rapidly absorbed and then eliminated within 4 h. […] Blood oxidative stress biomarkers were assessed, and urine metabolites of phenolic compounds were measured.
Phenolic compounds were extracted in urine using Waters OASIS HLB μElution plates (Milford, MA, USA), which were preconditioned with 250 μL methanol and 250 μL 0.2% acetic acid. After urine collection, the samples were immediately acidified with trifluoracetic acid. Aliquots of the samples were applied to the μ Columns of the plates and the phenolic compounds were eluted with methanol acidified with 0.2% acetic acid. The eluate was dried using CentriVap Benchtop Vacuum Concentrators (Labconco, Kansas City, MO, USA), reconstituted with methanol acidified with 5% acetic acid, and filtered with a […] PTEF filter (Millipore, Bedford, MA, USA).
The mobile phase consisted of two solvents: (A) 0.5% formic acid in water and (B) 0.5% formic acid in acetonitrile. The gradient used was 10% (B) at the beginning, 10% at 5 min, 20% at 15 min, 25% at 25 min, 35% at 33 min, 50% at 38 min, 90% at 43–44 min and 10% at 45 min. […] Quantification was based on the calibration curves of the PCA, VA, iVA, HA, HBA, and HPA standards. The concentrations were expressed as μmol/mmol creatinine for urine samples, and the elimination values were expressed in μmol. Urinary creatinine was evaluated using a Labtest kit (Labtest Diagnóstica S.A., Lagoa Santa, Minas Gerais, Brazil). The area under the curve (AUC) was calculated using the trapezoidal rule (data expressed as μmol/h), and the maximum concentration (Cmax) was calculated using the Origin 6.0 software (OriginLab Corporation, Northampton, MA, USA) and expressed as the mean and standard error of the mean (SEM). The samples collected from 0 to 3 h (after the juçara juice intake) were indicated as 3 h urine and the samples collected from 3 to 6 h were designated as 6 h urine to indicate the period of excretion. The standards’ purity varied from 95 to 98%.
Phenolic compounds’ metabolites were identified using a Prominence Liquid Chromatograph (Shimadzu, Japan) coupled to an ion trap Esquires-LC mass spectrometer (Bruker Daltonics, Billerica, MA, USA) with an electrospray ionization (ESI) interface. The chromatography condition was the same as that used for metabolite quantification by HPLC-DAD. After passing through the DAD detector, the flow rate was changed to 0.2 mL/min to inject the samples into the mass spectrometer. ESI was left in the positive mode for anthocyanins and in the negative mode for the other compounds. […] Scanning m/z was 100–1500.

Details of data set [2]: method as in PMID 12488939, PMID 34430750. Particulars: toluene-free healthy volunteers; cited from earlier work.

On to `O=C(O)c1ccc(O)c(O)c1.O=C(O)c1ccc(O)c(O)c1` [Protocatechuic acid, 3,4-Dihydroxybenzoic acid (protocatechuic acid)], for which, in data set [1], the AUC amounted to 282.89 ± 49.31 µmol/h and the Cmax was 28.26 ± 3.62 µmol/mmol Creatinine.
In the case of `COc1cc(C(=O)O)ccc1O` [Vanillic acid], in data set [1], the AUC amounted to 191.42 ± 25.98 µmol/h and the Cmax is on record as 20.13 ± 2.27 µmol/mmol Creatinine.
For `COc1cc(C(=O)O)ccc1O[C@@H]1O[C@H](C(=O)O)[C@@H](O)[C@H](O)[C@H]1O` [Vanillic acid glucuronide] the same measures were 164.38 ± 14.98 µmol/h and 16.74 ± 1.33 µmol/mmol Creatinine.
Consider `O=C(O)CNC(=O)c1ccccc1` [Hippuric acid], for which the normal urine value in data set [2] is 126.36–245.13 µmol/mmol creatinine. The “average urine concentration at baseline” value in data set [1] (baseline samples, before the juice intake) is on record as “around 243.06 µmol/mmol creatinine”. Also, in data set [1], the AUC was 6483.34 ± 1159.82 µmol/h and the Cmax is reported as 605.80 ± 75.74 µmol/mmol Creatinine.
Regarding `O=C(O)Cc1ccc(O)cc1` [Hydroxyphenylacetic acid], in data set [1], the AUC is 3527.78 ± 657.52 µmol/h and the Cmax came out at 334.09 ± 46.79 µmol/mmol Creatinine.
For `O=C(O)[C@H]1O[C@@H](Oc2c(-c3ccc(O)cc3)oc3cc(O)cc(O)c3c2=O)[C@H](O)[C@@H](O)[C@@H]1O` [Kaempferol glucuronide] the same measures were 138.05 ± 20.58 µmol/h and 13.62 ± 1.89 µmol/mmol Creatinine.
